Laboratory results published in patent US4889860A (Nova Pharmaceutical Corporation, priority 1987, dated 1989).
Where two headings read alike, the source gives them in different places.

Columns and labels:
[1] = test system: oxymorphonazine (OMZ)-induced analgesia; experiment: antagonism of oxymorphonazine (OMZ)-induced analgesia (tail flick) in rats; type: in vivo, rat
Experimental: The compound of Example XII was evaluated for its potency and duration in the antagonism of oxymorphonazine (OMZ)-induced analgesia. […] Data represent the mean SEM of 4-5 animals per group.
(Cowan A. Trendsin Pharmacology Science, 7:69-72, 1986) With this test the intracerebroventricular administration of bombesin produces a characteristic scratching response.

[2] = target: delta-type opioid receptor (Rattus norvegicus, UniProt P33533); experiment: inhibition of specific [^3 H] DADLE binding to rat forebrain membranes
Sequence of delta-type opioid receptor (P33533 whole entry): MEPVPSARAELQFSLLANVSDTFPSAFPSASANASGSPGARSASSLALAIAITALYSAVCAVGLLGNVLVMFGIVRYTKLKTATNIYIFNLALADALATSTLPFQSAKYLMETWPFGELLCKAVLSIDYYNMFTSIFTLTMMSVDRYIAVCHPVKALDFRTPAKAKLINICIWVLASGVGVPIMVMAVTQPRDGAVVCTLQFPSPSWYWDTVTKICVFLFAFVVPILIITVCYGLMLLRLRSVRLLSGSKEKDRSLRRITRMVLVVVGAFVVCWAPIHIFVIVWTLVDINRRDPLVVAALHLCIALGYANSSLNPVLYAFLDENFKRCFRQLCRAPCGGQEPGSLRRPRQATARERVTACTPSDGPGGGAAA

[3] = water intake in 24 hr food-deprived rats; type: in vivo, rat; conditions: for Water Intake: Table 3, 24 hr; for Cumulative Water Intake: Table 5
Experimental: Rats were given water and powdered food ad lib for 8 days until food intake had stabilized, and body weight and food and water intakes were recorded at the same time every day. Animals were assigned to treatment groups matched on the basis of their 24 hr food consumption on the last baseline day, and rats were food deprived for 24 hr immediately before injection of the test compound. […] The compound of Example XII was injected S.C. at doses of 1.15, 2.31, 11.55 and 23.09 μmol/kg, in a volume of 4 ml/kg of 0.3% acetic acid. Controls were injected with the vehicle solutions in the appropriate volumes. Food and water intakes were measured at 1, 3 and 24 hr after treatment. Data for each measure and time point were analyzed by one-way analysis of variance (ANOVA), and post-hoc comparisons were performed using Dunnett's test in order to compare the control mean to each of the treatment means.
Rats were given water and powdered food for 8 days, and following this,
Testing was performed as described above, and baseline measurements were recorded for 7 days. […] The compound of Example XII was injected at doses of 11.55, 23.09, 46.19 and 92.38 μmol/kg by suspension in a solution of 1:1 DMSO:water in a volume of 3 ml/kg. Food and water intakes were recorded at 1, 2, 4 and 6 h following treatment.
See Table 3 for experimental details, except that baseline measurements

[4] = target: T1, kappa-type opioid receptor (Cavia porcellus, UniProt P41144); experiment: inhibition of specific [^3 H] EKC binding to guinea pig cerebellum membrane
T1 construct: using guiniea pig cerebellum membrane; from tissue; host or cells: guinea pig cerebellum membranes
T1 sequence (P41144 whole entry): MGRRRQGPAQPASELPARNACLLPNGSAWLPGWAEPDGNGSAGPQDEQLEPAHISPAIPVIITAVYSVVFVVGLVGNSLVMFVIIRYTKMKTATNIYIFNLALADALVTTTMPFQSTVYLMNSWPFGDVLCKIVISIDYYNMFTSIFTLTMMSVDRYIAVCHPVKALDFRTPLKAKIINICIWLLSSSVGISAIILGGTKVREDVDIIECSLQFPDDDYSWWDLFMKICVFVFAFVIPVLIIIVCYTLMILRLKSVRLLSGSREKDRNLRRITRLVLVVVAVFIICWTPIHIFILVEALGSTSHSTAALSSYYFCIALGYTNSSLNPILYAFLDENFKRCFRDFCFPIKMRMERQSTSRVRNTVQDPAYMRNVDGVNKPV

[5] = conditioned taste aversion in rats; type: in vivo, rat; conditions: for conditioned taste aversion (milk intake, preference ratio): I.P., day 10
Experimental: The ability of a compound to inhibit feeding may not be related to its anorectic properties, but rather to the ability of that compound to produce a conditioned taste aversion. This possibility was tested in the following experiment. Animals were adapted to water deprivation by restricting their access to water to a single 30 min presentation occurring at the same time every day. Baseline water intakes were determined for 7 days until intakes had stabilized, and animals were assigned to treatment groups based on their intakes on the final baseline day. On the following day (day 8), all rats received a bottle of condensed milk (diluted 2:1 water:milk) in place of the water, and intakes were recorded for 30 min. Fifteen minutes after the milk was removed, rats were administered an I.P. injection of vehicles, LiCl (299.6 μmol/kg) or the compound of Example XII (1.15, 2.31, 11.55 and 23.09 μmol/kg). The compound of Example XII was dissolved in 0.3% acetic acid in a volume of 4 ml/kg. LiCl was dissolved in saline, and serves as a positive control, since it is a compound that reliably produces a strong conditioned taste aversion. This procedure was repeated on day 9. On day 10, all rats were given a two-bottle choice of water or the milk:water solution, and intakes were recorded for 30 min. Data for each experiment were analyzed by one-way ANOVA, and post-hoc comparisons were performed using Dunnett's test.
The effects of the compound of Example XII in producing a conditioned taste aversion are illustrated in FIGS. 28 and 29. In FIGS. 28 and 29 the data represent the mean ±SEM for each group. **=p<0.01 (Dunnett's test). Abbreviations: SAL, saline; AA, 0.3% acetic acid in distilled water; LiCl, lithium chloride. Doses of the compound of Example XII for each group are expressed in μmole/kg. The number of animals per group: SAL, 4: AA, LiCl and each dose of Example XII, 5. FIG. 28: Total milk intake in ml on day 10. FIG. 29: Preference ratio on day 10.

[6] = S.C., dose tested (mg/kg): Naltrexone 0.5, Nalmefene 1.0, XI 10.0, XII 2.5, XIII 0.5, XIV 5.0

Compound: Oc1ccc2c3c1O[C@H]1C(=NOc4ccccc4)CC[C@@]4(O)[C@@H](C2)N(CC2CC2)CC[C@]314 [Example XII, 6-Phenyloximino-17-cyclopropylmethyl-4,5 α-epoxy-3, 14-dihydroxymorphinan]
- antagonism of OMZ-induced analgesia, PO ([1]; PO, 42.64 μmol/kg, 0.5 hours): 50%
- ED50 ([1]; Rattus norvegicus, sc, Table 8, S.C., read-out: ED 50, oxymorphonazine antagonism): 0.34 mg/kg
- ED100 ([1]; Rattus norvegicus, sc, Table 8, S.C., read-out: ED 100, oxymorphonazine antagonism): 3.1 mg/kg
- Percent Antagonism at 1 Hr [1, 6]: 90%
- Percent Antagonism at 1.5 Hr [1, 6]: 92%
- Percent Antagonism at 2 Hr [1, 6]: 91%
- Percent Antagonism at 3 Hr [1, 6]: 77%
- Percent Antagonism at 4 Hr [1, 6]: 91%
- Percent Antagonism at 6 Hr [1, 6]: 92%
- Percent Antagonism at 8 Hr [1, 6]: 80%
- Ki ([2]; read-out: (Ki) nM, δ receptor (Rat Forebrain), Table 6, [^3 H] DADLE, mean of three experiments): 0.58 nM
- Ki ([2]; read-out: Ki, inhibition of specific [^3 H] DADLE binding, Tables 1 and 2, rat brain membranes, MEAN±S.E.M.): 1.7 ± 0.51 nM
- Water Intake ([3]; S.C. 1.15 μmol/kg): 68.3 ± 8.8 mL
- Water Intake ([3]; S.C. 2.31 μmol/kg): 65.0 ± 6.2 mL
- Water Intake ([3]; S.C. 11.55 μmol/kg): 60.3 ± 2.1 mL
- Water Intake ([3]; S.C. 23.09 μmol/kg): 62.8 ± 3.6 mL
- Cumulative Water Intake ([3]; S.C. 11.55 μmol/kg, 0-1 Hr): 4.8 ± 1.1 mL
- Cumulative Water Intake ([3]; S.C. 11.55 μmol/kg, 0-2 Hr): 8.0 ± 1.2 mL
- Cumulative Water Intake ([3]; S.C. 11.55 μmol/kg, 0-4 Hr): 15.6 ± 2.5 mL
- Cumulative Water Intake ([3]; S.C. 11.55 μmol/kg, 0-6 Hr): 22.0 ± 1.6 mL
- Cumulative Water Intake ([3]; S.C. 23.09 μmol/kg, 0-1 Hr): 4.0 ± 1.0 mL
- Cumulative Water Intake ([3]; S.C. 23.09 μmol/kg, 0-2 Hr): 7.2 ± 0.6 mL
- Cumulative Water Intake ([3]; S.C. 23.09 μmol/kg, 0-4 Hr): 13.2 ± 2.3 mL
- Cumulative Water Intake ([3]; S.C. 23.09 μmol/kg, 0-6 Hr): 19.6 ± 2.2 mL
- Cumulative Water Intake ([3]; S.C. 46.19 μmol/kg, 0-1 Hr): 5.2 ± 0.9 mL
- Cumulative Water Intake ([3]; S.C. 46.19 μmol/kg, 0-2 Hr): 8.0 ± 1.6 mL
- Cumulative Water Intake ([3]; S.C. 46.19 μmol/kg, 0-4 Hr): 15.2 ± 1.5 mL
- Cumulative Water Intake ([3]; S.C. 46.19 μmol/kg, 0-6 Hr): 20.8 ± 2.9 mL
- Cumulative Water Intake ([3]; S.C. 92.38 μmol/kg, 0-1 Hr): 4.0 ± 0.7 mL
- Cumulative Water Intake ([3]; S.C. 92.38 μmol/kg, 0-2 Hr): 7.6 ± 0.8 mL
- Cumulative Water Intake ([3]; S.C. 92.38 μmol/kg, 0-4 Hr): 15.2 ± 1.8 mL
- Cumulative Water Intake ([3]; S.C. 92.38 μmol/kg, 0-6 Hr): 21.2 ± 2.1 mL
- Ki [4]: 3.47 nM
- conditioned taste aversion (milk intake, preference ratio) [5]: totally ineffective in producing a conditioned taste aversion
- conditioned taste aversion (milk intake, preference ratio) ([5]; listed as Compound XII): inability of various doses
- general malaise ([5]; doses up to 23.09 μmol/kg): does not appear to cause any general malaise at doses up to 23.09 μmol/kg
